Test results reported in patent publication US20240067651A1 (Biohaven Therapeutics Ltd., priority 2019, published 2024).

Columns and labels:
[1] = Caco-2 Permeability Assay; format: in vitro ADME, human; conditions: human
In short: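 Caco-2 monolayers cultured 21 days (TEER >600 […]); test article at 10 μM in HBSS/HEPES pH 7.4 transport medium, dosed apical or basolateral, ±Pgp inhibitor. Incubated 90 min at 37 °C; both compartments quantified by LC-MS/MS. Papp (A→B, B→A), efflux ratio and % recovery calculated.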

[2] = Stability in Simulated Gastric Fluid (SGF); format: in vitro ADME; set-up: key: % parent compound remaining relative to 0-minute sample
In short: (§1)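 Percent parent compound remaining, by LC-MS/MS against the 0-minute sample, is reported after incubation at 2 μg/mL (final) in pepsin-containing SGF at pH 1.2 or pancreatin-containing SIF at pH 6.8. Incubations run at 37° C for up to 60 minutes.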

[3] = Stability in Simulated Intestinal Fluid (SIF); format: in vitro ADME; set-up: key: % parent compound remaining relative to 0-minute sample
In short: as §1

Plasma Stability = format: in vitro ADME, human
In short: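 Compounds incubated at 1 μM in fresh human plasma for 1 hour at 37° C, then protein-precipitated with acetonitrile/formic acid containing internal standard. Remaining parent measured by LC-MS/MS in triplicate, expressed as percent of control remaining.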

[4] = bare number, unit or time not given
[5] = Caco-2, pH 7.4, Caco-2 monolayer
[6] = Caco-2, pH 7.4, donor 10 μM, 90 minutes, 37° C., direction not given
[7] = % remaining at 1 h, SGF with pepsin pH 1.2, 2 μg/mL, 37° C.
[8] = % remaining at 1 h, SIF with pancreatin pH 6.8, 2 μg/mL, 37° C.
[9] = % remaining at 1 h, human plasma, 1 μM, 37° C.
[10] = % @ 1 h (remaining) in simulated gastric fluid
[11] = % @ 1 h (remaining) in simulated intestinal fluid
[12] = % @ 1 h (remaining) in human plasma
[13] = % remaining at 1 h in simulated gastric fluid
[14] = % remaining at 1 h in simulated intestinal fluid
[15] = % remaining at 1 h in human plasma

## CC(C)OCCn1c(=S)[nH]c(=O)c2c1ccn2COC(=O)CCCCOC(=O)[C@@H](N)C(C)C.O=C(O)C(F)(F)F [Example 335, trifluoroacetic acid {4-oxo-1-[2-(propan-2-yloxy)ethyl]-2-sulfanylidene-1H,2H,3H,4H,5H-pyrrolo[3,2-d]pyrimidin-5-yl}methyl 5-{[(2S)-2-amino-3-methylbutanoyl]oxy}pentanoate]
[1]; Caco-2, pH 7.4
  Papp at 90 min, 10 µM: 3.32 ×10⁻⁶ cm/s
[2]; [4]
  SGF: 99
[3]; [4]
  SIF: 9
Plasma Stability; % remaining @ 1 h
  human Plasma stability: 3% remaining

## CC(C)C[C@H](N)C(=O)OCCC(=O)OCn1ccc2c1c(=O)[nH]c(=S)n2CCOC(C)C.O=C(O)C(F)(F)F [Example 367, trifluoroacetic acid 3-oxo-3-({4-oxo-1-[2-(propan-2-yloxy)ethyl]-2-sulfanylidene-1H,2H,3H,4H,5H-pyrrolo [3,2-d]pyrimidin-5-yl}methoxy)propyl (2S)-2-amino-4-methylpentanoate]
[1]; [5]
  Papp at 90 min, 10 µM: < 0.108 ×10⁻⁶ cm/s
[2]; simulated gastric fluid, remaining at 1 h
  SGF: 100% remaining
[3]; simulated intestinal fluid, remaining at 1 h
  SIF: 0% remaining
Plasma Stability; human plasma, remaining at 1 h
  human Plasma stability: 1% remaining

## COC(=O)[C@H](CCCCNC(=O)[C@@H](N)C(C)C)NC(=O)OCn1ccc2c1c(=O)[nH]c(=S)n2CCOC(C)C.O=C(O)C(F)(F)F [Example 114, trifluoroacetic acid methyl (2S)-6-[(2S)-2-amino-3-methylbutanamido]-2-{[{{4-oxo-1-[2-(propan-2-yloxy)ethyl]-2-sulfanylidene-1H,2H,3H,4H,5H-pyrrolo[3,2-d]pyrimidin-5-yl}methoxy)carbonyl]amino}hexanoate]
[1]; [6]
  Papp at 90 min, 10 µM: 0.102 ×10⁻⁶ cm/s
[2]; [7]
  SGF: 98%
[3]; [8]
  SIF: 89%
Plasma Stability; [9]
  human Plasma stability: 93%

## C=CCN(C)C(=O)OCSc1nc(=O)c2[nH]ccc2n1CCOC(C)C.O=C(O)C(F)(F)F [Example 177]
[1]; [5]
  Papp at 90 min, 10 µM: 15.2 ×10⁻⁶ cm/s
[2]; [10]
  SGF: 99% @ 1 h
[3]; [11]
  SIF: 89% @ 1 h
Plasma Stability; [12]
  human Plasma stability: 99% @ 1 h

## CC(C)C[C@H](N)C(=O)OCCCCC(=O)OCn1ccc2c1c(=O)[nH]c(=S)n2CCOC(C)C.O=C(O)C(F)(F)F [Example 345, trifluoroacetic acid 5-oxo-5-({4-oxo-1-[2-(propan-2-yloxy)ethyl]-2-sulfanylidene-1H,2H,3H,4H,5H-pyrrolo[3,2-d]pyrimidin-5-yl}methoxy)pentyl (2S)-2-amino-4-methylpentanoate]
[1]; Caco-2, pH 7.4
  Papp at 90 min, 10 µM: < 0.0662 ×10⁻⁶ cm/s
[2]; % remaining @ 1 h
  SGF: 71% remaining
[3]; % remaining @ 1 h
  SIF: 2% remaining at
Plasma Stability; % remaining @ 1 h
  human Plasma stability: 77% remaining

## CC(C)OCCn1c(SCOC(=O)OC(C)C)nc(=O)c2c1ccn2COC(=O)OC(C)C [Example 91, {4-oxo-2-[{{[(propan-2-yloxy)carbonyl]oxy}methyl)sulfanyl]-1-[2-(propan-2-yloxy)ethyl]-1H,4H,5H-pyrrolo[3,2-d]pyrimidin-5-yl}methyl propan-2-yl carbonate]
[1]; [6]
  Papp at 90 min, 10 µM: 14.2 ×10⁻⁶ cm/s
[2]; [7]
  SGF: 98% remaining
[3]; [8]
  SIF: 99% remaining
Plasma Stability; [9]
  human Plasma stability: 1% remaining

## Cc1ccccc1N(C)C(=O)OCn1c(=O)c2c(ccn2COC(=O)N(C)c2ccccc2C)n(CCOC(C)C)c1=S [Example 244]
[1]; [5]
  Papp at 90 min, 10 µM: 7.47 ×10⁻⁶ cm/s
[2]; simulated gastric fluid, at 1 h
  SGF: 98% remaining
[3]; simulated intestinal fluid, at 1 h
  SIF: 99% remaining
Plasma Stability; human plasma, at 1 h
  human Plasma stability: 52% remaining

## CC(C)OCCn1c(=S)[nH]c(=O)c2c1ccn2COC(=O)N[C@H](C(=O)OC(C)(C)C)C(C)C [Example 107, tert-butyl (2S)-3-methyl-2-{[{{4-oxo-1-[2-(propan-2-yloxy)ethyl]-2-sulfanylidene-1H,2H,3H,4H,5H-pyrrolo[3,2-d]pyrimidin-5-yl}methoxy)carbonyl]amino}butanoate]
[1]; Caco-2, pH 7.4, no unit printed at the place (tables the 9th table and the 10th table have no head)
  Papp at 90 min, 10 µM: 11.5 ×10⁻⁶ cm/s
[2]; [7]
  SGF: 93%
[3]; [8]
  SIF: 92%
Plasma Stability; [9]
  human Plasma stability: 86%

## CC(C)C[C@H](N)C(=O)OCn1ccc2c1c(=O)n(CO)c(=S)n2CCOC(C)C.O=C(O)C(F)(F)F [Example 323, trifluoroacetic acid [3-(hydroxymethyl)-4-oxo-1-[2-(propan-2-yloxy)ethyl]-2-sulfanylidene-1H,2H,3H,4H,5H-pyrrolo[3,2-d]pyrimidin-5-yl]methyl (2S)-2-amino-4-methylpentanoate]
[1]; Caco-2, pH 7.4
  Papp at 90 min, 10 µM: < 0.355 ×10⁻⁶ cm/s
[2]; % remaining @ 1 h
  SGF: 95%@ 1 h
[3]; % remaining @ 1 h
  SIF: 52%@ 1 h
Plasma Stability; % remaining @ 1 h
  human Plasma stability: 12%@ 1 h

## CC(C)C[C@H](NC(=O)OC(C)(C)C)C(=O)NCCCCC(=O)OCn1ccc2c1c(=O)[nH]c(=S)n2CCOC(C)C [Example 26]
[1]; [5]
  Papp at 90 min, 10 µM: 12.7 ×10⁻⁶ cm/s
[2]; [13]
  SGF: 99% remaining
[3]; [14]
  SIF: 66% remaining
Plasma Stability; [15]
  human Plasma stability: 32% remaining

## CNCC(=O)NCCCCC(=O)OCn1ccc2c1c(=O)[nH]c(=S)n2CCOC(C)C.O=C(O)C(F)(F)F [Example 55]
[1]; [5]
  Papp at 90 min, 10 µM: 0.244 ×10⁻⁶ cm/s
[2]; [13]
  SGF: 100%
[3]; [14]
  SIF: 98% remaining
Plasma Stability; [15]
  human Plasma stability: 1% remaining

## CC(C)OCCn1c(=S)[nH]c(=O)c2c1ccn2COC(=O)c1ccccc1 [Example 116, {4-oxo-1-[2-(propan-2-yloxy)ethyl]-2-sulfanylidene-1H, 2H,3H,4H,5H-pyrrolo[3,2-d]pyrimidin-5-yl}methylbenzoate]
[1]; [6]
  Papp at 90 min, 10 µM: 6.41 ×10⁻⁶ cm/s
[2]; [7]
  SGF: 99%
[3]; [8]
  SIF: 46%
Plasma Stability; [9]
  human Plasma stability: 1%

## CCOC(=O)N1CCCC1C(=O)NCCCCC(=O)OCn1ccc2c1c(=O)[nH]c(=S)n2CCOC(C)C.O=C(O)C(F)(F)F (stereo not drawn) [Example 65]
[1]; [5]
  Papp at 90 min, 10 µM: 1.86 ×10⁻⁶ cm/s
[2]; [13]
  SGF: 87% remaining
[3]; [14]
  SIF: 89% remaining
Plasma Stability; [15]
  human Plasma stability: 20% remaining

## CC(C)OCCn1c(=S)[nH]c(=O)c2c1ccn2COC(=O)CCCCCCCCCCC(=O)OC(C)C [Example 262]
[1]; [5]
  Papp at 90 min, 10 µM: < 0.214 ×10⁻⁶ cm/s
[2]; simulated gastric fluid, after 1 h
  SGF: 92% remaining
[3]; simulated intestinal fluid, after 1 h
  SIF: 2% remaining
Plasma Stability; human plasma, after 1 h
  human Plasma stability: 41% remaining

## CSCC[C@H](NC(=O)OCC1c2ccccc2-c2ccccc21)C(=O)NCCC(=O)OCn1ccc2c1c(=O)[nH]c(=S)n2CCOC(C)C.O=C(O)C(F)(F)F [Example 21]
[1]; [5]
  Papp at 90 min, 10 µM: 5.79 ×10⁻⁶ cm/s
[2]; [13]
  SGF: 88% remaining
[3]; [14]
  SIF: 75% remaining
Plasma Stability; [15]
  human Plasma stability: 91% remaining

## CCCC(=O)OCn1ccc2c1c(=O)[nH]c(=S)n2CCOC(C)C [Example 154]
[1]; [5]
  Papp at 90 min, 10 µM: 4.03 ×10⁻⁶ cm/s
[2]; [10]
  SGF: 82% @ 1 h
[3]; [11]
  SIF: 0% @ 1 h
Plasma Stability; [12]
  human Plasma stability: 9% @ 1 h

## CC(C)OCCn1c(SCOC(=O)[C@H](NC(=O)OC(C)(C)C)C(C)C)nc(=O)c2c1ccn2COC(=O)[C@H](NC(=O)OC(C)(C)C)C(C)C [Example 299, {[5-({[(2R)-2-{[(tert-butoxy)carbonyl]amino}-3-methylbutanoyl]oxy}methyl)-4-oxo-1-[2-(propan-2-yloxy)ethyl]-1H,4H,5H-pyrrolo[3,2-d]pyrimidin-2-yl]sulfanyl}methyl (2R)-2-{[(tert-butoxy)carbonyl]amino}-3-methylbutanoate]
[1]; Caco-2, pH 7.4
  Papp at 90 min, 10 µM: 15.8 ×10⁻⁶ cm/s
[2]; % remaining @ 1 h
  SGF: 54% @ 1 h
[3]; % remaining @ 1 h
  SIF: 27% @ 1 h
Plasma Stability; % remaining @ 1 h
  human Plasma stability: 94% @ 1 h

## CC(C)OCCn1c(SCOC(=O)CCCCOC(=O)CN)nc(=O)c2c1ccn2COC(=O)CCCCOC(=O)CN.O=C(O)C(F)(F)F.O=C(O)C(F)(F)F [Example 331, bis (trifluoroacetic acid) ({5-[{{5-[(2-aminoacetyl)oxy]pentanoyl}oxy)meth-yl]-4-oxo-1-[2-(propan-2-yloxy)ethyl]-1H,4H,5H-pyrrolo[3,2-d]pyrimidin-2-yl}sulfanyl)methyl 5-[(2-aminoacetyl)oxy]pentanoate]
[1]; Caco-2, pH 7.4
  Papp at 90 min, 10 µM: 3.68 ×10⁻⁶ cm/s
[2]; % remaining @ 1 h
  SGF: 93% @ 1 h
[3]; % remaining @ 1 h
  SIF: 1% @ 1 h
Plasma Stability; % remaining @ 1 h
  human Plasma stability: 1% @ 1 h
